# In article PMC11424896, “Overcoming drug resistance of cancer cells by targeting the FGF1/FGFR1 axis with honokiol or FGF ligand trap” (Frontiers in Pharmacology, 2024):
# Biological target: T1, full-length FGFR1c (Homo sapiens, UniProt P11362)
# T1 construct: gene FGFR1; full-length FGFR1c, pcDNA3.1, stably transfected in U2OS cells (U2OSR1)
# Assay: Western blot of FGFR phosphorylation (pTyr653/[…]) in U2OSR1 cells
# Format: cell-based
# Settings: 30 µM honokiol pre-treatment, then 10 ng/mL FGF1 with heparin, 15 min; serum-starved cells
# T1 sequence (P11362 22-822): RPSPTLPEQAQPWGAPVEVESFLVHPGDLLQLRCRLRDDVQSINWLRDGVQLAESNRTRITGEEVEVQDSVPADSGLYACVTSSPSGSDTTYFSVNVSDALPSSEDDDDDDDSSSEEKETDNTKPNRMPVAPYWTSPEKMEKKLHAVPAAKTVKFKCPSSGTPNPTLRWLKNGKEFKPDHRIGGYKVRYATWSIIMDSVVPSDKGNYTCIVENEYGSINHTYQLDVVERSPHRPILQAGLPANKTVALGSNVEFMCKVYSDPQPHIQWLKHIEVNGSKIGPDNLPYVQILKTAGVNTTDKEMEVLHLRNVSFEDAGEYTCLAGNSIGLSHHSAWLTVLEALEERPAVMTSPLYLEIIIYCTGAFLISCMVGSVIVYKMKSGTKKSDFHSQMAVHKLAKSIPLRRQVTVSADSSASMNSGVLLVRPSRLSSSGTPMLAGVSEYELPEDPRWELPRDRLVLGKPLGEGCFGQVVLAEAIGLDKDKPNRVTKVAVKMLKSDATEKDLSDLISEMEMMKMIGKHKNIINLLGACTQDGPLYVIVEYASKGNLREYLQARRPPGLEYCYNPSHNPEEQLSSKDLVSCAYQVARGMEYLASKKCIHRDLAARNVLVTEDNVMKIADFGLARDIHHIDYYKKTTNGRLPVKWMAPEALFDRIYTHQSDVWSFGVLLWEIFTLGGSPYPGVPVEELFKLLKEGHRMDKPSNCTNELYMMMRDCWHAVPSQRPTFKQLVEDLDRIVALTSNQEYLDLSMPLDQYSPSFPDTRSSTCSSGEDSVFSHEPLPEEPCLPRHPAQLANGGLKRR
smiles,measurement,value
C=CCc1ccc(O)c(-c2ccc(O)c(CC=C)c2)c1 [honokiol],p-FGFR inhibition at 30 μM,"in cells treated with honokiol, FGF1 did not induce activation of either FGFR"
